The results in this text go back to patent publication US5021419A, “Novel pyrazinoxide compound of NF-1616-904 and a pharmaceutical composition containing the same” (Otsuka Pharmaceutical Co., Ltd., priority 1987, dated 1991).

The subject of series [1] is P388/VCR cells. The series is described as follows: Effect for decreasing the tolerance against Vincristine in P388/VCR cells (Pharmacological Test-1). The settings on record: Control group, NF-1616-902 0; 48 hours. The series is classed as cell-based. From the text:
Effect for decreasing the tolerance against Vincristine in P388/VCR cells

Series [2] concerns superoxide radicals (O2^-) release from the peritoneal macrophage cells of guinea pig. The series is described as follows: Inhibitory effect against superoxide radicals (O2^-) release from peritoneal macrophage cells by FMLP stimulation, cytochrome C reduction (Pharmacological Test-2). It counts as cell-based. The settings on record: Cavia porcellus, Peritoneal macrophage cell; FMLP 10^-7 M; 2×10^6 cells/ml; OD550; read-out: 50% inhibitory concentration (IC50). The method, then: Inhibitory effect of the pyrazinoxide compound of NF-1616-904 against superoxide radicals (O2^-) release from the peritoneal macrophage cells of guinea pig by stimulation:
Mineral oil was intraperitoneally administered to a guinea pig, then 96 hours after the administration, the peritoneal microphage cells were obtained.
Superoxide radicals (O2^-) were determined by means of reduction of cytochrome C according to the procedures described in an article by T. Matsumoto, et al. in Biochemical and Biophysical Research Communications, Vol. 88, No. 3 (1979), pages 974-979.
Thus, the peritoneal macrophage cells were added to make the final concentration of 2×10^6 cells/ml into 1 ml of 80 μM-cytochrome C solution, further the pyrazinoxide compound of NF-1616-904 was added thereto to make the test group sample. On the other hand, water added in place of the pyrazinoxide compound of NF-1616-904 to make the control group sample. Both test group and control group samples were subjected to a pure incubation at 37° C. for 1 minute.
As to the stimulating agent for releasing superoxide radicals (O2^-), formylmethionylleucylphenylalanine (FMLP) was added to make the final concentration of 10^-7 M into the above-mentioned test group sample and control group sample. Then, both samples were subjected to additional reaction for 1 minute. […]

The subject of series [3] is Masugi nephritis. The series is described as follows: Anti-albuminuria activity in Masugi nephritis (Pharmacological Test-3). It counts as in vivo, rat. The settings on record: oral; for Ratio of inhibition of albuminuria: 24 hours after NT, versus control; for Albuminuria: urine 24 hours after NT, mean±S.E., six rats, control 120 ± 30. On the procedure:
Anti-albuminuria activity of the pyrazinoxide compound of NF-1616-904 in Masugi nephritis
Rat nephrotoxin (hereinafter referred to as "NT") was prepared as follows. Thus, the kidney cortex of a rat was homogenized with an equal amount of physiological saline, then the thus obtained homogenate was admixed with Freund's complete adjuvant (manufacture by Difco Laboratories, Inc., Detroit, Mich., U.S.A.) in the ratio of 1:1. Then, 2 ml of this mixture was administered subcutaneously to a rabbit (body weight: 3.1 kg) to have said rabbit immunized. 1.5 Months after the immunization, the blood was sampled from the heart of said rabbit, and the serum was obtained thereform. The serum thus obtained was inactivated at 56° C. for 30 minutes, and subjected to fractionation by salting out with a aqueous solution saturated with 40% of ammonium sulfate. By sampling of immunoglobulin-γ-globulin (IgG) fraction, the desired NT was obtained.
This test was conducted by using Wisterstrain male rats having 150-160 g body weight. Pyrazinoxide compound of NF-1616-904 of the present invention […] were orally administered forcedly. Additionally, 1 ml of NT was administered intravenously to the tail vein of said rat. On the other hand, in place of pyrazinoxide compound of NF-1616-904, physiological saline was administered to other rats to make the control group.
The total amount of urinary protein being excreted in the urine during 24 hours after the administration of NT was determined by turbidity method using sulfosalicylic acid and bovine serum albumin (BSA) as the reference substance, according to procedures described in an article by F. Kingsbury, et al. in J. Lab. Clin. Med., Vol. 11, (1926), pages 981-989.
The ratio of inhibition of albuminuria (%) in the test group was calculated by referring to the measured value in the control group. The test results are shown in the following Table 2, in which each of the test data are shown at the mean value±S. E. of the six rats used in each of test and control groups.

As to `CC[C@]1(O)C[C@H]2CN(CCc3c([nH]c4ccccc34)[C@@](C(=O)OC)(c3cc4c(cc3OC)N(C=O)[C@H]3[C@@](O)(C(=O)OC)[C@H](OC(C)=O)[C@]5(CC)C=CCN6CC[C@]43[C@@H]65)C2)C1` [Vincristine], the “Cytotoxic concentration of Vincristine” value in series [1] turned out to be 100 ng/mL.
Regarding `COc1c(Cc2c[nH]c3ccccc23)[nH]c(=O)c(CC(C)C)[n+]1[O-]` [NF-1616-904], in series [2], the IC50 was determined as 12 µM. Also, in series [3] (30 mg/kg), the “Ratio of inhibition of albuminuria” value is reported as 62.5% and the Albuminuria was determined as 45 ± 16 mg/day. Further, in series [3] (60 mg/kg), the “Ratio of inhibition of albuminuria” value was determined as 26.7% and the Albuminuria was determined as 88 ± 18 mg/day.
